Experimental data published in US20100222371A1, “PREVENTION OF SURGICAL ADHESIONS” (CHILDREN'S MEDICAL CENTER CORPORATION, priority 2008, published 2010).
Where “and” joins values, the source holds several entries; their conditions need not be identical. Equal entries are not always repeated. Entries after “also recorded” stand apart in the source; their conditions may differ.

Tests used:
[1] = system: adhesion formation; experiment: Mouse adhesion model (silicone patch on abdominal wall, cecal abrasion), Example 1; assay type: in vivo, C57BL/6 mice
Procedure: Ten 7 week old male C57BL/6 mice were anesthetized with isoflurane and a midline laparotomy was performed. A 5.0 mm×5.0 mm piece of sterile silicone was attached to the right abdominal wall with 7.0 prolene sutures. The cecum then was gently rubbed with 2 cotton swabs to promote adhesion formation.
Two groups of 5 mice were treated with either 40 mg/kg/day of sunitinib in methylcellulose or methyl cellulose alone beginning the day before the adhesion operation and administered daily for 10 days. After 10 days of treatment, the animals were anesthetized with avertin, sacrificed, and the adhesions were scored.
The total adhesion score was the sum of the 3 individual scores. A minimum score was 0 and the maximum score was 12. Tenacity was rated as none (0), adhesions fell apart (1), lysed with traction (2), lysed with blunt dissection (3), and lysed with sharp dissection (4). Extent was measured as the percent of the patch covered by adhesion: 0% (0), <25% (1), 25 to 50% (2), 50 to 75% (3), and >75% (4). Cecal adhesions were graded as none (0), adhesions fell apart (1), lysed with traction (2), lysed with blunt dissection (3), and lysed with sharp dissection (4). The differences between the treated and untreated groups were significant (P=0.021).

[2] = system: intra-abdominal adhesion formation; experiment: Standard mouse adhesion model (cecal abrasion, silicone patch), Example 2, sacrifice on postoperative day 10 or 30; assay type: in vivo, C57BLJ6 mice; conditions: for Median cecal: median cecal adhesion score 0-4 (IQR); for Median extent / Median tenacity: median score 0-4 (IQR); for Total score: total median adhesion score 0-12 (IQR); for intra-abdominal adhesion formation compared with control: FIG. 1, FIG. 2; for long-term intra-abdominal adhesion formation compared with control: FIG. 3
Procedure: Thirty-seven 6- to 8-wk old C57BLJ6 mice (The Jackson Laboratory, Bar Harbor, Me.) were housed in cages of five mice with food and water ad libitum. The mice were acclimated to the facility for at least 72 h prior to surgery. A standard mouse adhesion model was performed as previously described (Chiang S C., et al (2000) J Pediatr Surg 35:189). After the mice were anesthetized with inhaled isoflurane, a midline incision was made, the cecum was eviscerated, rubbed gently with two cotton swabs, and then returned to anatomical position. A silicone patch (5.0×5.0×0.127 mm) (Bentec Medical, Woodland, Calif.) was sutured to the right abdominal wall, lateral to the epigastric vessels, with 7-0 nylon. One day prior to surgery, the mice were randomly treated with sunitinib (40 mg/kg in 100 methylcellulose) or methylcellulose control (100 uL). This dose was selected based on previous studies (Morimoto A M., (2004) Oncogene 23:1618; Takahashi H., et al (2006) J Ocul Pharmacol Ther 22:213; Pietras K., et al (2005) J Clin Ocol 23:939) Both groups were treated daily by orogastric gavage at the same dose for 10 days. On postoperative day 10, the mice were sacrificed and adhesions were scored by an observer who was blinded to the treatment groups, based on a previously described scoring system (Chiang S C., et al (2000), supra). The experiment was then repeated with sacrifice on postoperative day 30. The adhesion score was based on the extent of the patch covered by adhesions, the tenacity of adhesions to the patch, and the strength of cecal adhesions. Each criterion was scored from 0-4 and the sum of the three scores was the final adhesion score. The lowest and highest possible scores were 0 and 12, respectively. The tenacity of the adhesions to the patch was scored: 0=none, 1=adhesions fell apart, 2=lysed with traction, 3=lysed with blunt dissection, 4=lysed with sharp dissection. The extent of the patch covered was scored: 0=0%, 1=<25%, 2=25% to 50%, 3=50% to 75%, 4=>75%. The tenacity of cecal adhesions was scored: 0=none, 1=adhesions fell apart, 2=lysed with traction, 3=lysed with blunt dissection, 4=lysed with sharp dissection. Statistical analysis of adhesion scores was conducted using the Mann-Whitney rank sum test. The conventional 2-tailed P-value of 0.05 was used to establish significance. The results are presented as median adhesion score and interquartile range (IQR: 25th-75th percentile). The statistical program used was SigmaStat (SPSS, Chicago, Ill.).

[3] = system: adhesions of the uterus; experiment: Standard rabbit adhesion procedure (uterine horn abrasion), Example 3; assay type: in vivo, New Zealand white rabbits; conditions: for Extent of Uterus Covered: median percent involvement score 0-4 (IQR); for Extent of Uterus Covered / Total score / Adhesion Free Rabbits: 10 mg/kg daily for ten days; for Extent of Uterus Covered / Total score: p=0.003; for Total score: median total adhesion score (IQR); for Adhesion Free Rabbits: number of rabbits out of N = 8 surviving
Procedure: Twenty female New Zealand white rabbits underwent a standard rabbit adhesion procedure. The uterus and its bilateral horns were eviscerated, and abraded with the scalpel until punctate hemorrhages appeared. Collateral blood supply in the right mesosalpinx was tied off with 5-0 silk ties. The uterus was then returned to normal anatomic position. One day prior to surgery, the rabbits were randomly assigned to be treated with sunitinib at a dose of 10 mg/kg or saline control via orogastric gavage. Both groups were treated daily for a total of ten days. On postoperative day ten, the rabbits were sacrificed and their adhesions were scored by two observers who were blinded to their treatments. Adhesions are graded based on their tenacity (0=no adhesions, 1=adhesions fall apart, 2=adhesions lysed by traction, 3=adhesions lysed with blunt dissection, 4=adhesions lysed with sharp dissection) and the percent of uterus involved (0=none, 1=<25%, 2=25-50%, 3=51-75%, 4=>75%).

[4] = long-term, postoperative day 30, treated 10 d, n = 10, P=0.049
[5] = long-term, postoperative day 30, treated 10 d, n = 10, P=0.049, listed as sunitinib
[6] = postoperative day ten, N = 8, 10 mg/kg
[7] = postoperative day ten, N = 8, listed as Sunitinib + saline, 10 mg/kg

## CCN(CC)CCNC(=O)c1c(C)[nH]c(/C=C2\C(=O)Nc3ccc(F)cc32)c1C [Sunitinib, sunitinib malate]
[1]; 7 week old male C57BL/6 mice, Table 1 study, P=0.021
  adhesion prevention vs vector only control: significantly prevention adhesion formation
[1]; observation on individual mouse at scoring, 40 mg/kg/day, 10 days
  comments: Looked good
[1]; score of individual mouse, 0 (none) to 4 (lysed with sharp dissection), 40 mg/kg/day in methylcellulose, daily for 10 days from day before operation, scored after 10 days, listed as SU11248, 40 mg/kg/day
  Tenacity: 1 and 0 (3×) and 2
[1]; score of individual mouse, 0 (none) to 4 (lysed with sharp dissection), 40 mg/kg/day, 10 days, listed as SU11248, 40 mg/kg/day
  Cecal adhesions: 2 (2×) and 0 (2×) and 1
[1]; score of individual mouse, percent of patch covered: 0% (0), <25% (1), 25 to 50% (2), 50 to 75% (3), >75% (4), 40 mg/kg/day, 10 days, listed as SU11248, 40 mg/kg/day
  Extent: 3 (2×) and 0 (3×)
[1]; total adhesion score of individual mouse, sum of 3 scores, 0-12, 40 mg/kg/day, 10 days, treated vs untreated P=0.021, listed as SU11248, 40 mg/kg/day
  Total: 6 and 2 and 0 and 1 and 5
[2]; long-term, postoperative day 30, treated 10 d, n = 10, P=0.225
  Median cecal: 0 (IQR 0-2.0)
[2]; long-term, postoperative day 30, treated 10 d, n = 10, P=0.225, listed as sunitinib
  Median cecal: 0.0 (IQR 0-2.0)
[2]; [4]
  Median extent: 0 (IQR 0-1.0)
  Total score: 0 (IQR 0-3.0)
[2]; [5]
  Median extent: 0.0 (IQR 0-1.0)
  Total score: 0.0 (IQR 0.0-3.0)
[2]; long-term, postoperative day 30, treated 10 d from day prior to surgery, n = 10, P=0.011
  Median tenacity: 0 (IQR 0-0.5)
[2]; long-term, postoperative day 30, treated 10 d from day prior to surgery, n = 10, P=0.011, listed as sunitinib
  Median tenacity: 0.0 (IQR 0.0-0.5)
[2]; long-term, postoperative day 30, number of mice out of n = 10
  Adhesion free mice: 6
[2]; long-term, postoperative day 30, six of 10 mice
  mice completely adhesion-free: 60%
[2]; postoperative day 10, P=0.002
  intra-abdominal adhesion formation compared with control: significantly decreased
[2]; postoperative day 10, P=0.002, listed as sunitinib
  intra-abdominal adhesion formation compared with control: adhesion free; also recorded: significantly decreased
[2]; postoperative day 10, 40 mg/kg daily gavage for 10 days, n = 18, P=0.002
  Median cecal: 2.0 (IQR 0-2.0)
[2]; postoperative day 10, 40 mg/kg daily gavage for 10 days, n = 18, P vs control 0.091 (Table 3), 0.91, 40 mg/kg
  Median extent: 0 (IQR 0-2.0)
[2]; postoperative day 10, 40 mg/kg daily gavage for 10 days, n = 18, P vs control 0.091 (Table 3), 0.91, listed as sunitinib, 40 mg/kg
  Median extent: 0.0 (IQR 0-2.0)
[2]; postoperative day 10, 40 mg/kg daily orogastric gavage for 10 days, n = 18, P vs control 0.068 (Table 3), 0.68, 40 mg/kg
  Median tenacity: 0 (IQR 0-1.0)
[2]; postoperative day 10, 40 mg/kg daily orogastric gavage for 10 days, n = 18, P vs control 0.068 (Table 3), 0.68, listed as sunitinib, 40 mg/kg
  Median tenacity: 0.0 (IQR 0.0-1.0)
[2]; postoperative day 10, number of mice out of n = 18, 40 mg/kg daily for 10 days
  Adhesion free mice: 6
[2]; postoperative day 10, six of 18 mice, 40 mg/kg daily for 10 days
  mice completely adhesion-free: 33.3%
[2]; postoperative day 10, 40 mg/kg daily gavage for 10 days, n = 18, P=0.002, 40 mg/kg
  Total score: 2.0 (IQR 0-5.0)
[2]; postoperative day 10, 40 mg/kg daily gavage for 10 days, n = 18, P=0.002, listed as sunitinib, 40 mg/kg
  Total score: 2.0 (IQR 0.0-5.0)
[2]; postoperative day 30, P=0.049
  long-term intra-abdominal adhesion formation compared with control: significantly decreased
[2]; postoperative day 30, P=0.049, listed as sunitinib
  long-term intra-abdominal adhesion formation compared with control: decreased
[3]; FIG. 4, treated rabbit
  abdominal cavity adhesions in micrograph: free from abdominal cavity adhesions
[3]; [6]
  Extent of Uterus Covered: 1.0 (IQR 0-1.0; range 0-1)
  Total score: 2 (IQR 0-2.75; range 0-3)
[3]; [7]
  Extent of Uterus Covered: 1.0
  Total score: 2.0
[3]; median score 0-4 (IQR), 10 mg/kg daily orogastric gavage for ten days from day prior to surgery, postoperative day ten, N = 8, p=0.004, listed as Sunitinib + saline, 10 mg/kg
  Tenacity to Uterus: 1.0
[3]; postoperative day ten, 10 mg/kg
  Adhesion Free Rabbits: Three of the eight
[3]; postoperative day ten, listed as Sunitinib + saline, 10 mg/kg
  Adhesion Free Rabbits: 3
